Reference: ChEMBL document CHEMBL4680155, “One-pot synthesis and molecular docking of some new spiropyranindol-2-one derivatives as immunomodulatory agents and in vitro antimicrobial potential with DNA gyrase inhibitor” (Eur J Med Chem, 2020)
pIC50: −log10 of the molar value. Converted amounts (≈) assume the structure as drawn.

Experiments:
Escherichia coli [1] = assay: Antibacterial activity against Escherichia coli ATCC 25922 assessed as diameter of inhibition zone at 0.5 mg/ml incubated for 24 hrs by agar diffusion method; type: functional; settings: read-out: DIZ
Staphylococcus aureus [2] = assay: Antibacterial activity against multidrug resistant Staphylococcus aureus ATCC 43300 assessed as diameter of inhibition zone at 0.5 mg/ml incubated for 24 hrs by agar diffusion method; type: functional; settings: read-out: DIZ
Neutrophil = assay: Immunomodulatory activity in human neutrophils infected with bacteria assessed as increase in bacterial killing by measuring reduced NBT incubated for 30 mins by NBT dye based spectrophotometry; type: functional; parameters: concentration or dose not given beside the values; settings: 0.5 h
Staphylococcus aureus [3] = assay: Antibacterial activity against multidrug resistant Staphylococcus aureus ATCC 33591 assessed as reduction in bacterial growth incubated for 1 day by paper disk diffusion method; type: functional; settings: ATCC 33591, 24 h
Escherichia coli [4] = assay: Antibacterial activity against multidrug resistant Escherichia coli ATCC BAA-196 assessed as reduction in bacterial growth incubated for 1 day by paper disk diffusion method; type: functional; settings: ATCC BAA-196, 24 h
Enterococcus faecalis [5] = assay: Antibacterial activity against Enterococcus faecalis ATCC 29212 assessed as reduction in bacterial growth incubated for 1 day by paper disk diffusion method; type: functional; settings: ATCC 29212, 24 h
Enterococcus faecalis [6] = assay: Bactericidal activity against Enterococcus faecalis ATCC 29212 incubated for 24 hrs followed by transferring to freshly prepared broth medium and measured after 24 hrs by broth microdilution assay; type: functional; settings: time 48 hrs
Staphylococcus aureus [7] = assay: Bactericidal activity against Staphylococcus aureus ATCC 33591 incubated for 24 hrs followed by transferring to freshly prepared broth medium and measured after 24 hrs by broth microdilution assay; type: functional; settings: time 48 hrs
Salmonella typhimurium [8] = assay: Antibacterial activity against Salmonella typhi ATCC 6539 assessed as diameter of inhibition zone at 0.5 mg/ml incubated for 24 hrs by agar diffusion method; type: functional, Salmonella enterica subsp. enterica serovar Typhimurium; settings: Salmonella enterica, read-out: DIZ
Candida albicans [9] = assay: Antifungal activity against Candida albicans ATCC 10231 assessed as diameter of inhibition zone at 0.5 mg/ml incubated for 24 hrs by agar diffusion method; type: functional; settings: read-out: DIZ
Aspergillus brasiliensis [10] = assay: Fungicidal activity against Aspergillus brasiliensis ATCC 16404 incubated for 72 hrs followed by transferring to freshly prepared broth medium and measured after 24 hrs by broth microdilution assay; type: functional; settings: time 96 hrs
Candida albicans [11] = assay: Antifungal activity against Candida albicans ATCC 10231 assessed as reduction in bacterial growth incubated for 1 day by paper disk diffusion method; type: functional; settings: ATCC 10231, 24 h
Staphylococcus aureus [12] = assay: Antibacterial activity against Staphylococcus aureus ATCC 29213 assessed as reduction in bacterial growth incubated for 1 day by paper disk diffusion method; type: functional; settings: ATCC 29213, 24 h
Staphylococcus aureus [13] = assay: Bactericidal activity against Staphylococcus aureus ATCC 43300 incubated for 24 hrs followed by transferring to freshly prepared broth medium and measured after 24 hrs by broth microdilution assay; type: functional; settings: time 48 hrs
Escherichia coli [14] = assay: Bactericidal activity against Escherichia coli ATCC BAA-196 incubated for 24 hrs followed by transferring to freshly prepared broth medium and measured after 24 hrs by broth microdilution assay; type: functional; settings: time 48 hrs
Escherichia coli [15] = assay: Antibacterial activity against multidrug resistant Escherichia coli ATCC BAA-196 assessed as diameter of inhibition zone at 0.5 mg/ml incubated for 24 hrs by agar diffusion method; type: functional; settings: read-out: DIZ
Staphylococcus aureus [16] = assay: Antibacterial activity against multidrug resistant Staphylococcus aureus ATCC 43300 assessed as reduction in bacterial growth incubated for 1 day by paper disk diffusion method; type: functional; settings: ATCC 43300, 24 h
Salmonella typhimurium [17] = assay: Bactericidal activity against Salmonella typhi ATCC 6539 incubated for 24 hrs followed by transferring to freshly prepared broth medium and measured after 24 hrs by broth microdilution assay; type: functional, Salmonella enterica subsp. enterica serovar […]; settings: Salmonella enterica, time 48 hrs
Enterococcus faecalis [18] = assay: Antibacterial activity against Enterococcus faecalis ATCC 29212 assessed as diameter of inhibition zone at 0.5 mg/ml incubated for 24 hrs by agar diffusion method; type: functional; settings: read-out: DIZ
Aspergillus brasiliensis [19] = assay: Antifungal activity against Aspergillus brasiliensis ATCC 16404 assessed as diameter of inhibition zone at 0.5 mg/ml incubated for 72 hrs by agar diffusion method; type: functional; settings: read-out: DIZ
Pseudomonas aeruginosa [20] = assay: Bactericidal activity against Pseudomonas aeruginosa ATCC BAA-2111 incubated for 24 hrs followed by transferring to freshly prepared broth medium and measured after 24 hrs by broth microdilution assay; type: functional; settings: time 48 hrs
Pseudomonas aeruginosa [21] = assay: Antibacterial activity against multidrug resistant Pseudomonas aeruginosa ATCC BAA-2111 assessed as reduction in bacterial growth incubated for 1 day by paper disk diffusion method; type: functional; settings: ATCC BAA-2111, 24 h
DNA gyrase = DNA gyrase (Staphylococcus aureus, UniProt P0A0K8+P20831); assay: Inhibition of Staphylococcus aureus DNA gyrase using relaxed pBR322 DNA as substrate incubated for 45 mins by agarose gel electrophoresis method; type: protein-complex assay
Sequence of DNA gyrase (P0A0K8 whole entry): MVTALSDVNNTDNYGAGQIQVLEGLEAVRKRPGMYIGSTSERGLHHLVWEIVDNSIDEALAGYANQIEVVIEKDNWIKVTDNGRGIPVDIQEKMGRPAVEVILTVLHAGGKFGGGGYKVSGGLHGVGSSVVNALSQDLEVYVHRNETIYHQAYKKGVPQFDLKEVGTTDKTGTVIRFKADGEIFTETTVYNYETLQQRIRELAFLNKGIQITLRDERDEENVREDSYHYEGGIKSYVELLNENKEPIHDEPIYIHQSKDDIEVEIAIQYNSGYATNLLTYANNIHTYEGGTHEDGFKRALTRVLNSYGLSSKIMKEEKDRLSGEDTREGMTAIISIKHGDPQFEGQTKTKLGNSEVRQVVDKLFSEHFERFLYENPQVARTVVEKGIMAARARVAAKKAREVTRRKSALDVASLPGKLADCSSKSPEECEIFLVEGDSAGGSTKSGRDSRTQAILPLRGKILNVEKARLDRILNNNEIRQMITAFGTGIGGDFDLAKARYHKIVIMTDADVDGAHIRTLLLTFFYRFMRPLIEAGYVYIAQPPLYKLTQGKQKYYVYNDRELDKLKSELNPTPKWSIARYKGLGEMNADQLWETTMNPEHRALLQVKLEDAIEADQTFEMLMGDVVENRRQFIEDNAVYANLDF
Sequence of DNA gyrase (P20831 whole entry): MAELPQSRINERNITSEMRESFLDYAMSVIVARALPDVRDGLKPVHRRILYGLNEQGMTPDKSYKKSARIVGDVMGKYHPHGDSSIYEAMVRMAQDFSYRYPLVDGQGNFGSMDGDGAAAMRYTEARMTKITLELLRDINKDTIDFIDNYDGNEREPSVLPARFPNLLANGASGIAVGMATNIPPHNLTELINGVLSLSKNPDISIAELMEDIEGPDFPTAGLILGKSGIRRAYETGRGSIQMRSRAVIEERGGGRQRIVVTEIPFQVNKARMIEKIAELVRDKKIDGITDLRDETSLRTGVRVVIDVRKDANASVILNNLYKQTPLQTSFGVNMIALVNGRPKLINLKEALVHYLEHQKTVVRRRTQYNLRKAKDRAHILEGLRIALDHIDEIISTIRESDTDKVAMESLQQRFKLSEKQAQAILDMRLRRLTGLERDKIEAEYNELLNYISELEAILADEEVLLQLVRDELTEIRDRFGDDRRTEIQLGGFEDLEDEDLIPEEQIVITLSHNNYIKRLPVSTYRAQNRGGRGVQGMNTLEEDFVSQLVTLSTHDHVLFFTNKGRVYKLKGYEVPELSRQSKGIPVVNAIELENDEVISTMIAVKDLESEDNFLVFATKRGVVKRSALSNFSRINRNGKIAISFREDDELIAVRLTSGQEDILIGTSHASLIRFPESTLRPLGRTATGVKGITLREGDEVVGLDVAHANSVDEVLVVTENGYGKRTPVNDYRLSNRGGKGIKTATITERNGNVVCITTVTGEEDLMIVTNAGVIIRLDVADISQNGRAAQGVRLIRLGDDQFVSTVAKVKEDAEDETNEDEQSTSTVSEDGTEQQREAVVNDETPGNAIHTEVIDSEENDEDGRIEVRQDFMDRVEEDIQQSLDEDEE

Escherichia coli [22] = assay: Bactericidal activity against Escherichia coli ATCC 25922 incubated for 24 hrs followed by transferring to freshly prepared broth medium and measured after 24 hrs by broth microdilution assay; type: functional; settings: time 48 hrs
Staphylococcus aureus [23] = assay: Antibacterial activity against multidrug resistant Staphylococcus aureus ATCC 33591 assessed as diameter of inhibition zone at 0.5 mg/ml incubated for 24 hrs by agar diffusion method; type: functional; settings: read-out: DIZ
Candida albicans [24] = assay: Fungicidal activity against Candida albicans ATCC 10231 incubated for 24 hrs followed by transferring to freshly prepared broth medium and measured after 24 hrs by broth microdilution assay; type: functional; settings: time 48 hrs
Escherichia coli [25] = assay: Antibacterial activity against Escherichia coli ATCC 25922 assessed as reduction in bacterial growth incubated for 1 day by paper disk diffusion method; type: functional; settings: ATCC 25922, 24 h
Salmonella typhimurium [26] = assay: Antibacterial activity against Salmonella typhi ATCC 6539 assessed as reduction in bacterial growth incubated for 1 day by paper disk diffusion method; type: functional, Salmonella enterica subsp. enterica serovar Typhimurium; settings: Salmonella enterica, ATCC 6539, 24 h
Aspergillus brasiliensis [27] = assay: Antifungal activity against Aspergillus brasiliensis ATCC 16404 assessed as reduction in bacterial growth incubated for 3 days by paper disk diffusion method; type: functional; settings: ATCC 16404, 72 h, time 3 day
Staphylococcus aureus [28] = assay: Antibacterial activity against Staphylococcus aureus ATCC 29213 assessed as diameter of inhibition zone at 0.5 mg/ml incubated for 24 hrs by agar diffusion method; type: functional; settings: read-out: DIZ
Pseudomonas aeruginosa [29] = assay: Antibacterial activity against multidrug resistant Pseudomonas aeruginosa ATCC BAA-2111 assessed as diameter of inhibition zone at 0.5 mg/ml incubated for 24 hrs by agar diffusion method; type: functional; settings: read-out: DIZ
Staphylococcus aureus [30] = assay: Bactericidal activity against Staphylococcus aureus ATCC 29213 incubated for 24 hrs followed by transferring to freshly prepared broth medium and measured after 24 hrs by broth microdilution assay; type: functional; settings: time 48 hrs

Row | SMILES | zone of inhibition at 500 µg/mL (Escherichia coli [1]) | zone of inhibition at 500 µg/mL (Staphylococcus aureus [2]) | Activity (Neutrophil) | MIC (Staphylococcus aureus [3]) | MIC (Escherichia coli [4]) | MIC (Enterococcus faecalis [5]) | MBC (Enterococcus faecalis [6]) | MBC (Staphylococcus aureus [7]) | zone of inhibition at 500 µg/mL (Salmonella typhimurium [8]) | zone of inhibition at 500 µg/mL (Candida albicans [9]) | MFC (Aspergillus brasiliensis [10]) | MIC (Candida albicans [11]) | MIC (Staphylococcus aureus [12]) | MBC (Staphylococcus aureus [13]) | MBC (Escherichia coli [14]) | zone of inhibition at 500 µg/mL (Escherichia coli [15]) | MIC (Staphylococcus aureus [16]) | MBC (Salmonella typhimurium [17]) | zone of inhibition at 500 µg/mL (Enterococcus faecalis [18]) | zone of inhibition at 500 µg/mL (Aspergillus brasiliensis [19]) | further results
1 | CC(=O)C1=C(C)OC(N)=C(C#N)C12C(=O)Nc1ccc(S(=O)(=O)N3CCOCC3)cc12 (stereo unspecified) | 21 mm | 21 mm | 112.9% | 7.81 µg/mL (≈ 17.6 µM) | 6.25 µg/mL (≈ 14.1 µM) | 17.8 µg/mL (≈ 40 µM) | 26.6 µg/mL (≈ 60 µM) | 9.37 µg/mL (≈ 21.1 µM) | 19 mm | 21 mm | 150 µg/mL (≈ 337 µM) | 7.81 µg/mL (≈ 17.6 µM) | 71.1 µg/mL (≈ 160 µM) | 12.5 µg/mL (≈ 28.1 µM) | 12.5 µg/mL (≈ 28.1 µM) | 22 mm | 7.81 µg/mL (≈ 17.6 µM) | 50 µg/mL (≈ 112 µM) | 20 mm | 14 mm | MBC (Pseudomonas aeruginosa [20]): 17.8 µg/mL (≈ 40 µM); MIC (Pseudomonas aeruginosa [21]): 8.88 µg/mL (≈ 20 µM); pIC50 (DNA gyrase): 4.60; MBC (Escherichia coli [22]): 23.4 µg/mL (≈ 52.7 µM); zone of inhibition at 500 µg/mL (Staphylococcus aureus [23]): 20 mm; MFC (Candida albicans [24]): 15.6 µg/mL (≈ 35.1 µM); MIC (Escherichia coli [25]): 15.6 µg/mL (≈ 35.1 µM); MIC (Salmonella typhimurium [26]): 31.2 µg/mL (≈ 70.3 µM); MIC (Aspergillus brasiliensis [27]): 125 µg/mL (≈ 281 µM); zone of inhibition at 500 µg/mL (Staphylococcus aureus [28]): 22 mm; zone of inhibition at 500 µg/mL (Pseudomonas aeruginosa [29]): 18 mm; MBC (Staphylococcus aureus [30]): 85.3 µg/mL (≈ 192 µM)
2 | CCOC(=O)C1=C(N)OC(c2ccccc2)=C(C(=O)OCC)C12C(=O)Nc1ccc(S(=O)(=O)N3CCCCC3)cc12 (stereo unspecified) | 23 mm | 22 mm | 139.3% | 6.25 µg/mL (≈ 10.7 µM) | 4.44 µg/mL (≈ 7.63 µM) | 7.81 µg/mL (≈ 13.4 µM) | 15.6 µg/mL (≈ 26.9 µM) | 9.37 µg/mL (≈ 16.1 µM) | 21 mm | 21 mm | 115 µg/mL (≈ 197 µM) | 15.6 µg/mL (≈ 26.9 µM) | 88.3 µg/mL (≈ 152 µM) | 10 µg/mL (≈ 17.2 µM) | 5.32 µg/mL (≈ 9.15 µM) | 23 mm | 6.25 µg/mL (≈ 10.7 µM) | 21.9 µg/mL (≈ 37.6 µM) | 22 mm | 17 mm | MBC (Pseudomonas aeruginosa [20]): 8.84 µg/mL (≈ 15.2 µM); MIC (Pseudomonas aeruginosa [21]): 5.2 µg/mL (≈ 8.94 µM); pIC50 (DNA gyrase): 4.64; MBC (Escherichia coli [22]): 11.5 µg/mL (≈ 19.8 µM); zone of inhibition at 500 µg/mL (Staphylococcus aureus [23]): 22 mm; MFC (Candida albicans [24]): 21.9 µg/mL (≈ 37.6 µM); MIC (Escherichia coli [25]): 8.88 µg/mL (≈ 15.3 µM); MIC (Salmonella typhimurium [26]): 15.6 µg/mL (≈ 26.9 µM); MIC (Aspergillus brasiliensis [27]): 71.8 µg/mL (≈ 123 µM); zone of inhibition at 500 µg/mL (Staphylococcus aureus [28]): 21 mm; zone of inhibition at 500 µg/mL (Pseudomonas aeruginosa [29]): 22 mm; MBC (Staphylococcus aureus [30]): 150 µg/mL (≈ 258 µM)
3 | N#CC(C#N)=C1C(=O)Nc2ccc(S(=O)(=O)N3CCOCC3)cc21 | 25 mm | 24 mm | 145.7% | 4.44 µg/mL (≈ 12.9 µM) | 3.9 µg/mL (≈ 11.3 µM) | 8.88 µg/mL (≈ 25.8 µM) | 11.5 µg/mL (≈ 33.5 µM) | 8.88 µg/mL (≈ 25.8 µM) | 23 mm | 22 mm | 100 µg/mL (≈ 290 µM) | 6.25 µg/mL (≈ 18.2 µM) | 35.5 µg/mL (≈ 103 µM) | 5.04 µg/mL (≈ 14.6 µM) | 6.24 µg/mL (≈ 18.1 µM) | 25 mm | 3.9 µg/mL (≈ 11.3 µM) | 28.1 µg/mL (≈ 81.6 µM) | 23 mm | 19 mm | MBC (Pseudomonas aeruginosa [20]): 7.99 µg/mL (≈ 23.2 µM); MIC (Pseudomonas aeruginosa [21]): 4.44 µg/mL (≈ 12.9 µM); pIC50 (DNA gyrase): 4.58; MBC (Escherichia coli [22]): 15.6 µg/mL (≈ 45.4 µM); zone of inhibition at 500 µg/mL (Staphylococcus aureus [23]): 24 mm; MFC (Candida albicans [24]): 12.5 µg/mL (≈ 36.3 µM); MIC (Escherichia coli [25]): 7.81 µg/mL (≈ 22.7 µM); MIC (Salmonella typhimurium [26]): 15.6 µg/mL (≈ 45.4 µM); MIC (Aspergillus brasiliensis [27]): 62.5 µg/mL (≈ 182 µM); zone of inhibition at 500 µg/mL (Staphylococcus aureus [28]): 24 mm; zone of inhibition at 500 µg/mL (Pseudomonas aeruginosa [29]): 23 mm; MBC (Staphylococcus aureus [30]): 46.2 µg/mL (≈ 134 µM)
